This note sets out measurements from patent US7538123B2, “Indole derivative having piperidine ring” (Eisai R & D Management Co., Ltd., priority 2004, dated 2009).

One experiment has as its target T1, serotonin 1A receptor (Mus musculus, UniProt Q64264).
T1 construct: into the rectum of CD-1 (ICR) male mice (25-45 g); from tissue; host or cells: living CD-1 (ICR) male mice (whole animal)
T1 sequence (Q64264 1-421): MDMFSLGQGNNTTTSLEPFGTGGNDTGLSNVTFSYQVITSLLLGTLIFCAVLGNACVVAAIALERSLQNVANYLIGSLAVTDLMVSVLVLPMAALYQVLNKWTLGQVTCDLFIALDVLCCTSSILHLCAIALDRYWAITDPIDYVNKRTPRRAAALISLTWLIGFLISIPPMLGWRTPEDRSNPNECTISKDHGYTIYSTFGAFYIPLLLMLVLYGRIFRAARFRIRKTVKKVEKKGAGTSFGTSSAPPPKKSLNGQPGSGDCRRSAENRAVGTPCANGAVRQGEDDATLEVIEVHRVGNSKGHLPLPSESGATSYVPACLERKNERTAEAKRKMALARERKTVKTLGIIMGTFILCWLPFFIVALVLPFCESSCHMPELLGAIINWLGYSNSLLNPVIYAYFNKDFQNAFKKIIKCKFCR
In words: Antagonistic effect on serotonin 1A receptor agonist-induced hypothermia in mouse. It is filed as in vivo. As to conditions: for ED50: sc, 15 minutes before 8-hydroxy-dipropylaminotetralin 0.5 mg/kg sc, inhibition of hypothermia, CD-1 (ICR) male mice, read-out: ED50. As for the experimental part:
(1) A thermistor probe was inserted at a depth of approximately 2 cm into the rectum of CD-1 (ICR) male mice (25-45 g), so as to measure the body temperature thereof. Body temperature is decreased by subcutaneous administration of serotonin 1A receptor agonist (8-hydroxy-dipropylaminotetralin) 0.5 mg/kg. Since a serotonin 1A antagonist inhibits such action, the antagonistic effect of a test substance to a serotonin 1A receptor was evaluated using the inhibitory effect of the hypothermia as an index. A test substance was administered 15 minutes before the administration of the serotonin 1A agonist. A serotonin 1A partial agonist alone decreases the body temperature, depending on the degree of the agonistic action thereof. In addition, it has a weak antagonistic effect on 8-hydroxy-dipropylaminotetralin-induced hypothermia. (2) Results

A further experiment deals with T2, 5-HT1A receptor (Sus scrofa, UniProt A0A4X1UTF5).
T2 construct: from tissue; host or cells: swine hippocampus, membrane fraction
T2 sequence (A0A4X1UTF5 1-422): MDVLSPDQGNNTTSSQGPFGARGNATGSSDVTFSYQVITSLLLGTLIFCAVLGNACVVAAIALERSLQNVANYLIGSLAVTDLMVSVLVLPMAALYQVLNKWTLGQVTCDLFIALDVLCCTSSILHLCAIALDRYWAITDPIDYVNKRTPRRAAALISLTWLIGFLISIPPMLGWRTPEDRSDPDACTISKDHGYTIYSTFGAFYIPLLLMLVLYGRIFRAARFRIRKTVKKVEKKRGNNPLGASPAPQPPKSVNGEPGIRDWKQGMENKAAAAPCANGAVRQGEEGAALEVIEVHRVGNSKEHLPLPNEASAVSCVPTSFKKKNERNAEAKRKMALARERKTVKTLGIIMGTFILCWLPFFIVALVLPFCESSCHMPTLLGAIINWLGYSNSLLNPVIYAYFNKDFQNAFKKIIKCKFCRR
As to the kind of experiment: Test regarding affinity for serotonin 1A receptor ([3H]MPPF binding inhibition). Details: species or system swine. The text has this: (1) The affinity of a test substance for a 5-HT1A receptor was examined by an inhibition experiment, in which the inhibitory effect of the test substance against the binding of [^3H]-4-(2′-methoxy)phenyl-1-(2′-(N-2″-pyridinyl)-p-fluorobenzamido)ethyl-piperazine (MPPF) that selectively binds to the 5-HT1A receptor in a swine hippocampal membrane fraction was examined. The 5-HT1A receptor that is a G-protein binding receptor becomes a G-protein binding state with addition of MgCl2. In contrast, it becomes a G-protein non-binding state with addition of guanylylimido diphosphate (Gpp(NH)p). […] Thus, both the affinity of a test substance to the receptor that was in a state of not binding to the G-protein and the affinity of the test substance to the receptor that was in a state of binding to the G-protein were obtained. […]
A mixture (0.5 ml) used for incubation comprised an appropriate amount of the membrane fraction, a test substance with a desired concentration, MgCl2 (final concentration: 10 mM) or Gpp(NH)p (final concentration: 1 mm ), [^3H]MPPF (final concentration: 0.5 nM), dimethyl sulfoxide (final concentration: 1% (v/v)), and a 50 mM Tris-Hcl buffer (pH 7.4). […] Thereafter, radioactivity binding to the receptor was measured with a liquid scintillation counter. Non-specific binding was defined as binding detected in the presence of 10 μM WAY-100,635.

For orientation: ED50 means the dose at which the effect has come halfway, by size or by number of responders. `COc1ccc2ccccc2c1CCN1CCC(n2ccc3ccc(C(N)=O)cc32)CC1` [Compound 44, 1-{1-[2-(2-methoxynaphthalen-1-yl)ethyl]piperidin-4-yl}-1H-indole-6-carboxamide]: the ED50 on serotonin 1A receptor is 0.41 mg/kg.

On to `COc1cc2c(cc1CCN1CCC(n3ccc4ccc(C(N)=O)cc43)CC1)N(C)C(=O)OC2` [Compound 39, 1-{1-[2-(6-methoxy-methyl-oxo-1,4-dihydro-2H-benz[d][1,3]oxazin-7-yl)ethyl]piperidin-4-yl}-1H-indole-6-carboxamide], for which the L/H ratio at 5-HT1A receptor (low affinity IC50 divided by high affinity IC50, 1 or smaller = no intrinsic activity, 2 or greater = intrinsic activity) was 0.7.

Turning to `NC(=O)c1ccc2ccn(C3CCN(CCc4ccc(F)cc4)CC3)c2c1` [Compound A, reference compound], on 5-HT1A receptor, the “affinity for 5-HT1A / receptor binding action (in words)” value was “has affinity”. Further, the “antagonistic effect against the 5-HT1A receptor / pharmacological effect (in words)” value on serotonin 1A receptor (in vivo) is on record as “weak”. Moreover, the ED50 at serotonin 1A receptor was over 1 mg/kg.

On to `CNC(=O)c1ccc2ccn(C3CCN(CCc4cc5c(cc4OC)CCC(=O)N5C)CC3)c2c1` [Compound 58, 1-{1-[2-(6-methoxy-1-methyl-2-oxo-1,2,3,4-tetrahydroquinolin-7-yl)ethyl]piperidin-4-yl}-N-methyl-1H-indole-6-carboxamide], for which the ED50 on serotonin 1A receptor was 0.53 mg/kg.

As for `CNC(=O)c1ccc2ccn(C3CCN(CCc4cc5c(cc4OC)CCN(C)C5=O)CC3)c2c1` [Compound 38, 1-{1-[2-(6-methoxy-2-methyl-1-oxo-1,2,3,4-tetrahydroisoquinolin-7-yl)ethyl]piperidin-4-yl}-N-methyl-1H-indole-6-carboxamide], the ED50 on serotonin 1A receptor is 0.19 mg/kg.

Turning to `COc1cc2c(cc1CCN1CCC(n3ccc4ccc(C(N)=O)cc43)CC1)C(=O)N(C)CC2` [Compound 33, 1-{1-[2-(6-methoxy-2-methyl-1-oxo-1,2,3,4-tetrahydroisoquinolin-7-yl)ethyl]piperidin-4-yl}-1H-indole-6-carboxamide], the ED50 on serotonin 1A receptor is 0.12 mg/kg.

In the case of `COc1ccc2c(c1CCN1CCC(n3ccc4ccc(C(N)=O)cc43)CC1)OCCO2` [Compound 32, 1-{1-[2-(6-methoxy-2,3-dihydrobenz[1,4]dioxin-5-yl)ethyl]piperidin-4-yl}-1H-indole-6-carboxamide], the ED50 on serotonin 1A receptor amounted to 0.04 mg/kg.

On to `COc1ccc2c(c1CCN1CCC(n3ccc4ccc(C(N)=O)cc43)CC1)CCC2O` (stereo not shown) [Compound 49, 1-{1-[2-(1-hydroxy-5-methoxyindan-4-yl)ethyl]piperidin-4-yl}-1H-indole-6-carboxamide], for which, at serotonin 1A receptor, the ED50 was 0.28 mg/kg.
